Data set [1] relates to Xanthomonas campestris pv. campestris. Kind of data set: In vivo preventive test on Xanthomonas campestris pv. campestris (black rot on cabbage). As to conditions: sprayed 72 hours before inoculation, evaluated 8 or 10 days after inoculation; for pest or weed control at 31 ppm / pest or weed control at 500 ppm / pest or weed control at 125 ppm: Xanthomonas campestris, read-out: efficacy; for pest or weed control at 500 ppm: 500 ppm of active ingredient; for pest or weed control at 125 ppm: 125 ppm of active ingredient. A digest of the protocol: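 Young cabbage plants sprayed preventively with compound formulated in acetone/DMSO/Tween and diluted in water, then inoculated 72 h later with a bacterial spray. Kept at 27° C, 95% relative humidity; disease scored after 8 or 10 days as % efficacy versus solvent-treated controls (0% = control, 100% = no disease).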

The test system of data set [2] is Pseudomonas syringae pv. tomato. In words: In vivo preventive test on Pseudomonas syringae pv. tomato (bacterial speck on tomato). The conditions noted are these: sprayed 72 hours before inoculation, evaluated 5 or 6 days after inoculation, read-out: efficacy; for pest or weed control at 500 ppm: 500 ppm of active ingredient. The method, then: (§1) The tested active ingredients were prepared by homogenization in a mixture of acetone/Dimethyl sulfoxide/Tween®, and then diluted with water to obtain the desired active material concentration.
The young plants of tomato were treated by spraying the active ingredient prepared as described above. Control plants were treated only with an aqueous solution of acetone/Dimethyl sulfoxide/Tween®.
After 72 hours, the plants were contaminated by spraying the leaves with an aqueous bacteria suspension of Pseudomonas syringae pv. tomato. The contaminated tomato plants were incubated for 4 days in saturated atmosphere at 22° C. day/20° C. night−70% HR and then for 1 or 2 days at 22° C. day/20° C. night at 70-80% relative humidity.
The test was evaluated 5 or 6 days after the inoculation. 0% means an efficacy which corresponds to that of the control plants while an efficacy of 100% means that no disease was observed.

The nature of data set [3]: LogP by HPLC on reversed phase columns (EEC directive 79/831 Annex V.A8). The format is physicochemical. The conditions noted are these: reversed phase HPLC columns; method [a]. A digest of the protocol:
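Reversed-phase HPLC, calibrated with straight-chain alkan-2-ones (C3–C16) of known LogP; values by linear interpolation of retention times between successive alkanones. Multiple values from one method are joined by "+"; lambda-max taken from 200–400 nm UV spectra at chromatographic peaks.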

The subject of data set [4] is salicylate responsive promoter sequence of the PR1 (pathogenesis-related protein I) gene (AT2G14610). Kind of data set: Induction of defense gene expression in Arabidopsis thaliana (PR1 promoter-GFP reporter plants). Format: in vivo. The conditions noted are these: 72 h, 3rd day after spraying, mock treated leaves set as 1.00, read-out: relative fluorescence value. Put shortly:
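Transgenic A. thaliana carrying GFP under the salicylate-responsive PR1 promoter, grown five days, then sprayed with compounds. Whole-plant fluorescence imaged and quantified on day 3 post-spray, expressed relative to mock-treated leaf background set at 1.00.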

For a further data set, the system named is Peronospora parasitica. In words: In vivo preventive test on Peronospora parasitica (Crucifer downy mildew) on cabbage. As to conditions: Hyaloperonospora parasitica, 120 h, sprayed 72 hours before inoculation, evaluated 5 days after inoculation, read-out: efficacy; for pest or weed control at 125 ppm: 125 ppm of active ingredient; for pest or weed control at 500 ppm: 500 ppm of active ingredient; for pest or weed control at 31 ppm: 31 ppm of active ingredient. A digest of the protocol: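 Young cabbage plants were sprayed with compound in aqueous acetone/DMSO/Tween, then inoculated 72 h later with P. parasitica spores and held 5 days at 20 °C, 100% RH. Efficacy scored 5 days post-inoculation: 0% equals solvent-treated controls, 100% means no disease.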

For another data set, the system named is Uromyces appendiculatus. Kind of data set: In vivo preventive test on Uromyces appendiculatus (bean rust). As to conditions: 240 h, sprayed 72 hours before inoculation, evaluated 10 days after inoculation, read-out: efficacy; for pest or weed control at 500 ppm: 500 ppm of active ingredient; for pest or weed control at 31 ppm: 31 ppm of active ingredient; for pest or weed control at 125 ppm: 125 ppm of active ingredient. A digest of the protocol:
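Young bean plants sprayed with compound in acetone/DMSO/Tween diluted in water, then inoculated 72 h later with spore suspension. Incubated 24 h at 20° C., 100% RH, then 9 days at 20° C., 70-80% RH. Efficacy scored 10 days post-inoculation, 0% = untreated-control level, 100% = no disease.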

In data set [5] the test system is Colletotrichum lindemuthianum. Kind of data set: In vivo preventive test on Colletotrichum lindemuthianum (Anthracnose on bean). The conditions noted are these: Colletotrichum lindemuthianum, 144 h, sprayed 72 hours before inoculation, evaluated 6 days after inoculation, read-out: efficacy; for pest or weed control at 500 ppm: 500 ppm of active ingredient; for pest or weed control at 125 ppm: 125 ppm of active ingredient. The method, then: as §1
The young plants of bean were treated by spraying the active ingredient prepared as described above. Control plants were treated only with an aqueous solution of acetone/Dimethyl sulfoxide/Tween®.
After 72 hours, the plants were contaminated by spraying the leaves with an aqueous suspension of Colletotrichum lindemuthianum spores. The contaminated bean plants were incubated for 24 hours at 20° C. and at 100% relative humidity and then for 5 days at 20° C. and at 90% relative humidity.
The test was evaluated 6 days after the inoculation. 0% means an efficacy which corresponds to that of the control plants while an efficacy of 100% means that no disease was observed.

Another data set relates to Alternaria alternata. In words: Alternaria alternata in vitro cell test. Format: cell-based. As to conditions: 120 h, 5 days incubation, read-out: efficacy (inhibition of fungal growth; no direct activity); for inhibition at 5 ppm: 5 ppm of active ingredient; for inhibition at 20 ppm: 20 ppm of active ingredient. Put shortly:
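A. alternata spores in glucose/peptone/yeast-extract liquid medium were exposed to DMSO-solubilized compound (final DMSO ≤1%). After 5 days incubation, mycelium growth read spectrometrically; inhibition derived from absorbance relative to fungicide-free control wells.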

The test system of data set [6] is Colletotrichum lindemuthianum. Kind of data set: Colletotrichum lindemuthianum in vitro cell test. As to conditions: 144 h, 6 days incubation, read-out: efficacy (inhibition of fungal growth; no direct activity); for inhibition at 5 ppm: 5 ppm of active ingredient; for inhibition at 20 ppm: 20 ppm of active ingredient. Format: cell-based. A digest of the protocol: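 C. lindemuthianum spore suspension grown in liquid glucose/peptone/yeast-extract medium with compound (final DMSO ≤1%). After 6 days, mycelial growth measured by absorbance; inhibition calculated versus fungicide-free control wells.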

For data set [7], the system named is Xanthomonas campestris pv. campestris. In words: Xanthomonas campestris pv. campestris in vitro cell test. The format is cell-based. The conditions noted are these: 24 h of incubation, read-out: efficacy (inhibition of bacteria growth; no direct activity); for inhibition at 5 ppm: 5 ppm of active ingredient; for inhibition at 20 ppm: 20 ppm of active ingredient. A digest of the protocol: (§2)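 Bacteria from liquid pre-culture diluted to set OD in LB broth and exposed to compounds dissolved in DMSO (final ≤1%). After 24 h, growth read by absorbance; inhibition derived relative to compound-free control wells.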

For data set [8], the system named is Pseudomonas syringae pv. tomato. In words: Pseudomonas syringae pv. tomato in vitro cell test. The format is cell-based. As to conditions: 20 ppm of active ingredient, 24 h of incubation, read-out: efficacy (inhibition of bacteria growth; no direct activity). Put shortly:
as §2

Marks after values point to notes of the source that are not given here.

For `O=C(NC1(C(=O)O)CC1)c1cc(Br)c(Br)s1` [CMP1, reference compound], in data set [1] (31 ppm of active ingredient), the efficacy is 10* %. For the same compound, the pest or weed control at 31 ppm in data set [1] (31 ppm of active ingredient) worked out at 10%. In addition, the pest or weed control at 500 ppm in data set [1] and in [2] was 0% throughout.
Broadly, the chromatographic logP is a lipophilicity value derived from retention on a column. For the compound `CCSC(=O)C1(NC(=O)c2sc(Br)c(Br)c2C)CC1` [I.128], the chromatographic logP in [3] is 3.81. In data set [4], the fold induction at 75 ppm was above 2 and the fold induction at 300 ppm was above 2. In addition, in the data set with Peronospora parasitica, the pest or weed control at 125 ppm was in the range of 90 to 100% and the pest or weed control at 500 ppm is 90 to 100%. The pest or weed control at 500 ppm in the data set on Uromyces appendiculatus fell in the range of 90 to 100%. Moreover, in [2], the pest or weed control at 500 ppm was 70 to 79%.
One may read the inhibition as the relative decrease from the control value, in per cent. Regarding `CCOC(=O)C(CO)NC(=O)c1sc(Cl)c(Cl)c1C` (stereo not shown) [I.039], in data set [3], the chromatographic logP came out at 2.48. Moreover, in [4], the fold induction at 75 ppm is above 2. Besides, the fold induction at 300 ppm in data set [4] is above 2. Moreover, the values for the pest or weed control at 500 ppm (in data set [5]; in the data set on Peronospora parasitica; in the data set with Uromyces appendiculatus) were 90 to 100%, 90 to 100% and 80 to 89%, respectively. The pest or weed control at 31 ppm lay within 90 to 100% in the data set with Peronospora parasitica and 70 to 79% in data set [1] (31 ppm of active ingredient). The pest or weed control at 125 ppm fell in the range of 90 to 100% in the data set with Peronospora parasitica and 70 to 79% in data set [1]. The inhibition at 5 ppm (with Alternaria alternata; in [6]; in [7]) was at most 30% each time. Also, the inhibition at 20 ppm (in the data set with Alternaria alternata; in [6]; in data set [7]; in [8]) was at most 30% throughout.
`COC(=O)C(Cc1c[nH]cn1)NC(=O)c1sc(Br)c(Br)c1C` (stereo not shown) [I.033] displayed a chromatographic logP in data set [3] of 1.5. Also, the fold induction at 300 ppm in data set [4] is above 2. In addition, the figures for the pest or weed control at 125 ppm (in [5]; with Peronospora parasitica; in [1]) were 80 to 89%, 70 to 79% and 70 to 79%, respectively. Further, the pest or weed control at 500 ppm in data set [5] fell in the range of 90 to 100%; with Peronospora parasitica, 80 to 89%; in the data set on Uromyces appendiculatus, 90 to 100%. Also, the pest or weed control at 31 ppm in data set [1] (31 ppm of active ingredient) was in the range of 70 to 79%. Also, the inhibition at 5 ppm (with Alternaria alternata; in data set [6]; in data set [7]) was at most 30% throughout. Besides, the inhibition at 20 ppm (in the data set on Alternaria alternata; in [6]; in [7]; in data set [8]) was at most 30% each time.
Regarding `COC(=O)C(NC(=O)c1cc(Br)c(Br)s1)C1CC1` (stereo not shown) [CMP10, reference compound], the pest or weed control at 31 ppm in the data set with Peronospora parasitica was below 30%; in [1] (31 ppm of active ingredient) it was below 30%; with Uromyces appendiculatus it was 0%. In addition, in data set [2] (125 ppm of active ingredient), the pest or weed control at 125 ppm was below 40%.
As for `CCOC(=O)C(COC)NC(=O)c1sc(Cl)c(Cl)c1C` (stereo not shown) [I.044], the chromatographic logP in data set [3] is 3.37. Moreover, the fold induction at 75 ppm in data set [4] is above 2. The fold induction at 300 ppm in data set [4] is above 2. Further, the pest or weed control at 31 ppm fell in the range of 80 to 89% in data set [5] (31 ppm of active ingredient), 90 to 100% with Peronospora parasitica, 70 to 79% in data set [1] (31 ppm of active ingredient) and 90 to 100% in the data set with Uromyces appendiculatus. The pest or weed control at 125 ppm was in the range of 90 to 100% in data set [5], 90 to 100% with Peronospora parasitica, 80 to 89% in data set [1] and 90 to 100% in the data set with Uromyces appendiculatus. Also, the pest or weed control at 500 ppm (in [5]; with Peronospora parasitica; in the data set with Uromyces appendiculatus) was 90 to 100% each time. The inhibition at 5 ppm (in the data set with Alternaria alternata; in data set [6]; in data set [7]) was at most 30% in each case. Further, the inhibition at 20 ppm in data set [7] and in data set [8] was at most 30% each time.
As to `Cc1c(C(=O)NC2(C(=O)O)CCC2)sc(Cl)c1Cl` [I.175], in data set [3], the chromatographic logP was 2.62. Moreover, the fold induction at 75 ppm in [4] was above 2. Moreover, in data set [4], the fold induction at 300 ppm was above 2. Besides, the pest or weed control at 125 ppm was 70 to 79% in data set [5], 90 to 100% in the data set on Peronospora parasitica, 80 to 89% in data set [1] and 70 to 79% in the data set with Uromyces appendiculatus. For the same compound, the pest or weed control at 31 ppm with Peronospora parasitica lay in the range of 90 to 100%; in data set [1] (31 ppm of active ingredient) it was 70 to 79%. Besides, the inhibition at 5 ppm (with Alternaria alternata; in data set [6]; in [7]) was at most 30% in each case. Further, the inhibition at 20 ppm (in the data set on Alternaria alternata; in data set [6]; in [7]; in data set [8]) was at most 30% in each case.
In data set [3], `CCOC(=O)C(CO)NC(=O)c1sc(Br)c(Br)c1C` (stereo not shown) [I.006] yielded a chromatographic logP of 2.58. Moreover, in data set [4], the fold induction at 75 ppm was above 2. For the same compound, the fold induction at 300 ppm in [4] is above 2. For the same compound, the pest or weed control at 500 ppm lay in the range of 70 to 79% in data set [5], 90 to 100% in the data set on Peronospora parasitica, 80 to 89% in data set [1] and 90 to 100% in the data set with Uromyces appendiculatus. Further, the figures for the pest or weed control at 31 ppm with Peronospora parasitica and with Uromyces appendiculatus were 80 to 89% and 90 to 100%, respectively. Further, the pest or weed control at 125 ppm in the data set on Peronospora parasitica was in the range of 90 to 100%; with Uromyces appendiculatus it was 80 to 89%. Moreover, the inhibition at 5 ppm (in the data set with Alternaria alternata; in data set [6]; in data set [7]) was at most 30% each time. The inhibition at 20 ppm (in the data set on Alternaria alternata; in data set [7]; in data set [8]) was at most 30% in each case.

For the origin of these results see patent US12509437B2, “Substituted thiophene carboxamides and derivatives thereof as microbicides” (Bayer Aktiengesellschaft, priority 2019, dated 2025).
